This is an account of results in article PMC9238401, “Peptide Conjugates Derived from flg15, Pep13, and PIP1 That Are Active against Plant-Pathogenic Bacteria and Trigger Plant Defense Responses” (Applied and Environmental Microbiology, 2022).

In series [1] the test system is Erwinia amylovora PMV6076. As to the kind of experiment: In vitro growth inhibition (MIC). The format is cell-based. Conditions: TSB, 25°C, 48 h, OD 600 nm (Bioscreen C), three replicates, experiment repeated twice; MIC = lowest concentration with no growth, given as range. The method, boiled down:
(§1)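 Strains were grown 24 h at 25°C on agar, then suspended in sterile water at 10^8 CFU mL^−1 and mixed with peptide dilutions in Trypticase soy broth. Plates were incubated at 25°C with shaking and OD600 read hourly for 48 h. MIC is the lowest concentration with no growth at 48 h.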

For series [2], the system named is Pseudomonas syringae pv. actinidiae Psa3700.1.1. As to the kind of experiment: In vitro growth inhibition (MIC). The settings on record: TSB, 25°C, 48 h, OD 600 nm (Bioscreen C), three replicates, experiment repeated twice; MIC given as range. It is filed as cell-based. The method, boiled down:
as §1

The subject of series [3] is Pseudomonas syringae pv. syringae EPS94. As to the kind of experiment: In vitro growth inhibition (MIC). The format is cell-based. Conditions: TSB, 25°C, 48 h, OD 600 nm (Bioscreen C), three replicates, experiment repeated twice; MIC given as range. In short, it runs like this: as §1
For series [4], the system named is Xanthomonas arboricola pv. pruni CFBP5563. The experiment in a line: In vitro growth inhibition (MIC). It is filed as cell-based. The settings on record: TSB, 25°C, 48 h, OD 600 nm (Bioscreen C), three replicates, experiment repeated twice; MIC given as range. The method, boiled down:
as §1

Series [5] relates to Xanthomonas fragariae Xf349-9A. The experiment in a line: In vitro growth inhibition (MIC). The format is cell-based. The settings on record: TSB, 25°C, 48 h, OD 600 nm (Bioscreen C), three replicates, experiment repeated twice; MIC given as range. In short, it runs like this:
as §1

Series [6] relates to Xanthomonas axonopodis pv. vesicatoria 2133-2. Conditions: TSB, 25°C, 48 h, OD 600 nm (Bioscreen C), three replicates, experiment repeated twice; MIC given as range. The method, boiled down: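 Bacteria grown 24 h (48 h for Xanthomonas axonopodis, X. fragariae) at 25°C, suspended at 10^8 CFU mL^−1, mixed with peptide dilutions in TSB.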
The subject of series [7] is plant-pathogenic bacteria (E. amylovora, X. arboricola pv. pruni, X. fragariae, X. axonopodis pv. vesicatoria, P. syringae pv. actinidiae, P. syringae pv. …). Conditions: 24 h.
For a further series, the system named is horse erythrocytes. Conditions: TRIS buffer pH 7.2, 1 h, 37°C, absorbance 540 nm, relative to melittin 100 μM, ± confidence interval (α = 0.05). In short, it runs like this:
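Hemolysis measured as absorbance at 540 nm of supernatant, expressed as percent of melittin-lysed control after buffer subtraction. Compound solutions (750, 500, 300, 100 μM, Tris-buffered saline pH 7.2) were combined 1:1 with washed horse red cells for 1 h, 37°C, shaking.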

Another series has as its system tobacco leaves. As to the kind of experiment: Effect of peptide infiltration on tobacco leaves (phytotoxicity). It is filed as in vivo. The settings on record: in vivo. In short, it runs like this: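 Phytotoxicity was scored as necrotic lesion diameter 48 h post-infiltration. Each peptide was infiltrated at 50, 150 or 250 μM into fully expanded tobacco leaf mesophyll, on ≥3 leaves from different plants, alongside water and same-molar melittin controls.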

The nature of series [8]: HPLC retention time as indicator of relative hydrophobicity. It is filed as physicochemical. The settings on record: chromatographic, Kromasil 100 C18 (4.6 mm × 40 mm, 3 μm), linear gradient 2 to 100% B over 12 min, 1 mL/min; A 0.1% aqueous TFA, B 0.1% TFA in CH3CN; used as indicator of relative hydrophobicity. In short, it runs like this: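 Reversed-phase HPLC on Kromasil 100 C18 (4.6 × 40 mm, 3 μm), 0.1% TFA in water/acetonitrile, linear 2–100% B at 1 mL/min over 7 min (method A, UV 220 nm) or 12 min (method B). Retention time serves as relative hydrophobicity.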

No end group written: not given here.

In the case of “VWNQPVRGFKVYEKKLFKKILKKL-NH2 [Pep13-BP16]”, the “MIC, Ea” value in series [1] was in the range of 6.2 to 12.5 µM. In addition, in series [2], the “MIC, Psa” value was 1.6 to 3.1 µM. The “MIC, Pss” value in series [3] lay in the range of 6.2 to 12.5 µM. Also, in series [4], the “MIC, Xap” value lay within 0.8 to 1.6 µM. In addition, the “MIC, Xf” value in series [5] lay within 3.1 to 6.2 µM. For the same substance, the “MIC, Xav” value in [6] was 0.8 to 1.6 µM. Moreover, in [7], the “MIC against all the bacteria tested (span over the six pathogens)” value lay within 0.8 to 12.5 µM. Moreover, in the series with horse erythrocytes, the “Percent hemolysis at 50 μM” value stood at 2 ± 0.6%, the “Percent hemolysis at 150 μM” value was 3 ± 0.2%, the “Percent hemolysis at 250 μM” value was found to be 4 ± 0.3% and the “Percent hemolysis at 375 μM” value amounted to 4 ± 0.2%. In the series on tobacco leaves, the “Size of the lesions in infiltrated tobacco leaves at 50 μM” value is recorded as 0.23 ± 0.07 cm, the “Size of the lesions in infiltrated tobacco leaves at 150 μM” value is 0.52 ± 0.14 cm and the “Size of the lesions in infiltrated tobacco leaves at 250 μM” value stood at 0.93 ± 0.19 cm. The “tR (min), HPLC retention time (method B)” value in series [8] worked out at 5.70 min.
